Values of other authors, collected in PMC5641551, “Chemical Proteomics for Target Discovery of Head-to-Tail Cyclized Mini-Proteins” (Frontiers in Chemistry, 2017).

Tested on: FK-binding protein 12
Details: no reference given; cited from earlier work

Question: With `CO[C@H]1C[C@@H]2CC[C@@H](C)[C@@](O)(O2)C(=O)C(=O)N2CCCC[C@H]2C(=O)O[C@H]([C@H](C)C[C@@H]2CC[C@@H](O)[C@H](OC)C2)CC(=O)[C@H](C)/C=C(\C)[C@@H](O)[C@@H](OC)C(=O)[C@H](C)C[C@H](C)/C=C/C=C/C=C/1C` [rapamycin] as the compound, how does the “binding to FK-binding protein 12” value read?
Answer: binds to the protein FK-binding protein 12
